The text below walks through data of ChEMBL document CHEMBL1151499, “Synthesis of a piperidinomethylthiophene derivative as H2-antagonist with inhibitory activity against Helicobacter pylori” (Bioorg Med Chem Lett, 1996).

Structures are written as SMILES. Values after ≈ are worked out from the molar mass of the structure shown.

Format in all cases: functional
One experiment concerns the target Histamine H2 receptor (Cavia porcellus, UniProt P47747). The experiment can be described thus: Histamine H2 receptor antagonistic activity.
The subject of another experiment is Helicobacter pylori. The experiment can be described thus: Compound was tested for inhibitory activity against Helicobacter pylori No. 9470.
Experiment [1] deals with Histamine H2 receptor (Cavia porcellus) (UniProt P47747). Nature of the experiment: Compound was tested for Histamine H2 receptor antagonistic activity at 10 ug/ml.
Sequence of Histamine H2 receptor (Cavia porcellus) (P47747 whole entry): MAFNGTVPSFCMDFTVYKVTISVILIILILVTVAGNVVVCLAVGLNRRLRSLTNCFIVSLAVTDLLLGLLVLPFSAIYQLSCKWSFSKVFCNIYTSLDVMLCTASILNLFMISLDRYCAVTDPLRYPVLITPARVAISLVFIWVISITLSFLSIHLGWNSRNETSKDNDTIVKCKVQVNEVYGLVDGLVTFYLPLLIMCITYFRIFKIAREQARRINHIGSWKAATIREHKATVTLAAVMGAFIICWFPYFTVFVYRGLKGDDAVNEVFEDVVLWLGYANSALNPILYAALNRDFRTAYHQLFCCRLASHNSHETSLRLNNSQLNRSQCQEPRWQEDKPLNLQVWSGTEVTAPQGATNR

Broadly, the IC50 is the concentration at which inhibition is half-maximal. A high value points to lower potency. In general, MIC refers to the lowest concentration found to suppress growth. One may read the inhibition as how much of the control response was suppressed. Read a low inhibition as a weak effect.

Sequence of Histamine H2 receptor (P47747 whole entry): as above

`O=c1c(NC/C=C\COc2csc(CN3CCCCC3)c2)c(NCCF)c1=O` showed a half-inhibitory concentration (IC50) on Histamine H2 receptor of 1060 nM. 1.56 µg/mL (≈ 3.83 µM) was the least that counted as inhibitory in the experiment with Helicobacter pylori (MIC).
For `CN(C)CC/N=c1\c(O)c(O)\c1=N/C/C=C\COc1csc(CN2CCCCC2)c1` the same measures were 809 nM and > 100 µg/mL.
The corresponding values for `N#CCCNc1c(NC/C=C\COc2csc(CN3CCCCC3)c2)c(=O)c1=O` are 748 nM and 25 µg/mL (≈ 60.3 µM).
Compound `O=c1c(NC/C=C\COc2csc(CN3CCCCC3)c2)c(NCC(F)(F)C(F)(F)C(F)(F)F)c1=O` had an inhibition in experiment [1] of 39%. This compound gave an MIC against Helicobacter pylori of 6.25 µg/mL (≈ 11.5 µM).
At Histamine H2 receptor, `C/N=c1\c(O)c(O)\c1=N/C/C=C\COc1csc(CN2CCCCC2)c1` showed a 50% inhibitory concentration (IC50) of 1840 nM. Further, in the experiment on Helicobacter pylori, inhibition of growth (MIC) required 12.5 µg/mL (≈ 33.3 µM).
Compound `O=c1c(NC/C=C\COc2csc(CN3CCCCC3)c2)c(NCC(F)(F)C(F)(F)F)c1=O` showed an inhibition in experiment [1] of 43%. In the experiment with Helicobacter pylori, this compound gave a minimum inhibitory concentration (MIC) of 25 µg/mL (≈ 50.7 µM).
`CN(C)Cc1cc(OC/C=C\C/N=c2\c(O)c(O)c2=N)cs1` had a concentration for half-maximal inhibition (IC50) against Histamine H2 receptor of 685 nM. In the experiment on Helicobacter pylori, the MIC is 100 µg/mL (≈ 311 µM).
For `Nc1c(NC/C=C\COc2csc(CN3CCCCC3)c2)c(=O)c1=O` the same measures were 443 nM and 100 µg/mL (≈ 277 µM).
`CC(=O)OCC(=O)NCCCOc1cccc(CN2CCCCC2)c1` [ROXATIDINE ACETATE] showed a half-maximal inhibitory concentration (IC50) at Histamine H2 receptor of 4100 nM. The minimum inhibitory concentration (MIC) against Helicobacter pylori is > 100 µg/mL.
Compound `CN/C(=C/[N+](=O)[O-])NCCSCc1ccc(CN(C)C)o1` [RANITIDINE] had an IC50 against Histamine H2 receptor of 3340 nM. In the experiment with Helicobacter pylori, the minimum inhibitory concentration (MIC) is > 100 µg/mL.
`CC(C)/N=c1\c(O)c(O)\c1=N/C/C=C\COc1csc(CN2CCCCC2)c1` gave an IC50 against Histamine H2 receptor of 1930 nM. The compound further came in with an MIC against Helicobacter pylori of 12.5 µg/mL (≈ 31 µM).
`CN/C(=N\CCSCc1nc[nH]c1C)NC#N` [CIMETIDINE]: in the experiment on Helicobacter pylori, the MIC was > 100 µg/mL.
`C=CCNc1c(NC/C=C\COc2csc(CN3CCCCC3)c2)c(=O)c1=O` gave an IC50 on Histamine H2 receptor of 1270 nM. Further, the minimal inhibitory concentration (MIC) against Helicobacter pylori was > 100 µg/mL.
On to `COCC/N=c1\c(O)c(O)\c1=N/C/C=C\COc1csc(CN2CCCCC2)c1`, for which the IC50 at Histamine H2 receptor is 1140 nM. In the experiment on Helicobacter pylori, the minimal inhibitory concentration (MIC) is > 100 µg/mL.
